Key:
Assay in all cases: relative viability (nuclei count vs DMSO), 5 days (fraction); higher = more cells survive
NCI-H2009 = system: NCI-H2009
Summary of the method: (§1)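 Values are medians from duplicate plates. Each reflects relative viability, defined as the nuclei count of treated wells over that of vehicle wells. Lung cancer cell lines in 1536-well plates were pin-tool dosed one day after seeding with one drug alone or with a fixed anchor-drug dose plus five library-drug doses (not always all listed) in √10 steps, then fixed, stained and imaged at 4× after 5 days.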

NCI-H2170 = system: NCI-H2170
Summary of the method: as §1

HCC-366 = system: HCC-366
Summary of the method: as §1

NCI-H2087 = system: NCI-H2087
Summary of the method: as §1

LOU-NH91 = system: LOU-NH91
Summary of the method: as §1

NCI-H1792 = system: NCI-H1792
Summary of the method: as §1

NCI-H522 = system: NCI-H522
Summary of the method: as §1

NCI-H1355 = system: NCI-H1355
Summary of the method: as §1

NCI-H661 = system: NCI-H661
Summary of the method: as §1

NCI-H2405 = system: NCI-H2405
Summary of the method: as §1

NCI-H2342 = system: NCI-H2342
Summary of the method: as §1

Nc1ccn([C@@H]2O[C@H](CO)[C@@H](O)[C@@H]2O)c(=O)n1 [Cytarabine] + COc1cccc2cc(-c3nc([C@H]4CC[C@H](C(=O)O)CC4)n4ncnc(N)c34)[nH]c12 [OSI-027] (partner 0.5 µM)
relative viability (NCI-H2009; first compound 0.005 µM): 0.656 | relative viability (NCI-H2009; first compound 0.01581 µM): 0.642 | relative viability (NCI-H2009; first compound 0.05 µM): 0.621 | relative viability (NCI-H2009; first compound 0.1581 µM): 0.454 | relative viability (NCI-H2009; first compound 0.5 µM): 0.29 | relative viability (NCI-H2170; first compound 0.005 µM): 0.543 | relative viability (NCI-H2170; first compound 0.01581 µM): 0.513 | relative viability (NCI-H2170; first compound 0.05 µM): 0.387 | relative viability (NCI-H2170; first compound 0.1581 µM): 0.303 | relative viability (NCI-H2170; first compound 0.5 µM): 0.208 | relative viability (HCC-366; first compound 0.005 µM): 0.823 | relative viability (HCC-366; first compound 0.01581 µM): 0.61 | relative viability (HCC-366; first compound 0.05 µM): 0.558 | relative viability (HCC-366; first compound 0.1581 µM): 0.213 | relative viability (HCC-366; first compound 0.5 µM): 0.06 | relative viability (NCI-H2087; first compound 0.005 µM): 0.406 | relative viability (NCI-H2087; first compound 0.01581 µM): 0.485 | relative viability (NCI-H2087; first compound 0.05 µM): 0.416 | relative viability (NCI-H2087; first compound 0.1581 µM): 0.192 | relative viability (NCI-H2087; first compound 0.5 µM): 0.121 | relative viability (LOU-NH91; first compound 0.005 µM): 0.664 | relative viability (LOU-NH91; first compound 0.01581 µM): 0.739 | relative viability (LOU-NH91; first compound 0.05 µM): 0.597 | relative viability (LOU-NH91; first compound 0.1581 µM): 0.486 | relative viability (LOU-NH91; first compound 0.5 µM): 0.585 | relative viability (NCI-H1792; first compound 0.005 µM): 0.757 | relative viability (NCI-H1792; first compound 0.01581 µM): 0.664 | relative viability (NCI-H1792; first compound 0.05 µM): 0.738 | relative viability (NCI-H1792; first compound 0.1581 µM): 0.615 | relative viability (NCI-H1792; first compound 0.5 µM): 0.427 | relative viability (NCI-H522; first compound 0.005 µM): 0.717 | relative viability (NCI-H522; first compound 0.01581 µM): 0.599 | relative viability (NCI-H522; first compound 0.05 µM): 0.395 | relative viability (NCI-H522; first compound 0.1581 µM): 0.48 | relative viability (NCI-H522; first compound 0.5 µM): 0.539 | relative viability (NCI-H1355; first compound 0.005 µM): 0.41 | relative viability (NCI-H1355; first compound 0.01581 µM): 0.402 | relative viability (NCI-H1355; first compound 0.05 µM): 0.31 | relative viability (NCI-H1355; first compound 0.1581 µM): 0.2 | relative viability (NCI-H1355; first compound 0.5 µM): 0.21 | relative viability (NCI-H661; first compound 0.005 µM): 0.559 | relative viability (NCI-H661; first compound 0.01581 µM): 0.617 | relative viability (NCI-H661; first compound 0.05 µM): 0.545 | relative viability (NCI-H661; first compound 0.1581 µM): 0.413 | relative viability (NCI-H661; first compound 0.5 µM): 0.363 | relative viability (NCI-H2405; first compound 0.005 µM): 0.62 | relative viability (NCI-H2405; first compound 0.01581 µM): 0.558 | relative viability (NCI-H2405; first compound 0.05 µM): 0.434 | relative viability (NCI-H2405; first compound 0.1581 µM): 0.394 | relative viability (NCI-H2405; first compound 0.5 µM): 0.325 | relative viability (NCI-H2342; first compound 0.005 µM): 0.511 | relative viability (NCI-H2342; first compound 0.01581 µM): 0.591 | relative viability (NCI-H2342; first compound 0.05 µM): 0.511 | relative viability (NCI-H2342; first compound 0.1581 µM): 0.549 | relative viability (NCI-H2342; first compound 0.5 µM): 0.459

— the supplement of paper PMC10307832
